Laboratory results reported in patent US20260256738A1, “METHODS OF TREATING CANCER WITH A RAS MUTATION” (Immuneering Corporation, priority 2023, published 2026).
pIC50: −log10 of the molar value.

Legend:
[1] = tested on: Caco-2; test: Caco-2 permeability; details: 10 μM, 2 hrs
[2] = molecular target: CYP450 2D6 (Homo sapiens, UniProt P10635); test: CYP450 Panel; details: 10 μM; substrate dextromethorphan; in % (unit assumed)
[3] = Microsome Stability (% remaining @1 hour); type: in vitro ADME; details: Human; 2 μM
[4] = tested on: Colon-26 KRAS-G12D tumor; test: Colon-26 Model (KRAS G12D CRC): Efficacy & Safety; type: in vivo; details: Colon-26 KRAS-G12D in Balb/c
Experimental: Female athymic BALB/c nude or BALB/c mice (Beijing Vital River Laboratory Animal Technology Co., Ltd.), approximately 8-10 weeks old were used in these studies. Animals were maintained in individually vented cages on a 12-h light-dark cycle. Food and water were available ad libitum. The Colon-26 tumor cells were maintained in vitro with RPMI1640 medium supplemented with 10% fetal bovine serum at 37° C. in an atmosphere of 5% CO2 in air. The cells in exponential growth phase were harvested and quantitated by cell counter before tumor inoculation. […] Randomization was started when the mean tumor size reached approximately 125 mm^3. A total of 84 tumor-bearing mice were enrolled in the study and allocated into 7 treatment groups (12 mice per group). Also 12 non-tumor-bearing mice were assigned as un-treated group.
Animals were treated with either vehicle (10% DMSO/90% [20% SBE-β-CD in saline], pH 5) or vehicle containing compounds at the indicated doses by gavage (p.o.) twice daily for approximately 28-42 days (BID×28-42 p.o.), or to ethical endpoints (BWL>20%; Median Tumor Volume (MTV)>2000 mm^3; Individual TV>3000 mm^3; clinical signs of unwell). Clinical signs of unwell was characterized, but not limited to the following. Severe dehydration, hypothermia, abnormal/labored respiration, lethargy, obvious pain, diarrhea, skin lesions, neurological symptoms, impaired mobility (not able to eat or drink) due to significant ascites and enlarged abdomen, astasia, continuous prone or lateral position, signs of muscular atrophy, paralytic gait, clonic convulsions, tonic convulsions, persistent bleeding from body orifice. Dosing as well as tumor and body weight measurements were conducted in a Laminar Flow Cabinet.
Animals were checked daily for morbidity and mortality. During routine monitoring, the animals were checked for any effects of tumor growth and treatments on behavior such as mobility, food and water consumption, body weight gain/loss (body weights were measured twice per week after randomization), eye/hair matting and any other abnormalities. Mortality and observed clinical signs were recorded for individual animals in detail.
Tumor volumes were measured twice per week after randomization in two dimensions using a caliper, and the volume was expressed in mm3 using the formula: V=(L×W×W)/2, where V is tumor volume, L is tumor length (the longest tumor dimension) and W is tumor width (the longest tumor dimension perpendicular to L). Results were presented as the median tumor volume, expressed in mm^3+/−interquartile range, of each group. Tumor Growth Inhibition; TGI %=[1−(Ti/(Ci)]×100; where Ti as the median tumor volume of the treatment group on the measurement day, Ci as the median tumor volume of control group at the measurement day.
The body weights and tumor volumes were measured by using StudyDirector™ software (version 3.1.399.19).
The protocol and any amendment(s) or procedures involving the care and use of animals in this study were reviewed and approved by the Institutional Animal Care and Use Committee (IACUC) of CrownBio prior to execution. During the study, the care and use of animals were conducted in accordance with the regulations of the Association for Assessment and Accreditation of Laboratory Animal Care (AAALAC).

[5] = Microsome Stability (% remaining @1 hour); type: in vitro ADME; details: SD Rat; 2 μM
[6] = molecular target: T1, CYP450 2C8 (Homo sapiens, UniProt P10632); test: CYP450 Panel; type: in vitro ADME; details: 10 μM; substrate amodiaquine
T1 sequence (P10632 1-490): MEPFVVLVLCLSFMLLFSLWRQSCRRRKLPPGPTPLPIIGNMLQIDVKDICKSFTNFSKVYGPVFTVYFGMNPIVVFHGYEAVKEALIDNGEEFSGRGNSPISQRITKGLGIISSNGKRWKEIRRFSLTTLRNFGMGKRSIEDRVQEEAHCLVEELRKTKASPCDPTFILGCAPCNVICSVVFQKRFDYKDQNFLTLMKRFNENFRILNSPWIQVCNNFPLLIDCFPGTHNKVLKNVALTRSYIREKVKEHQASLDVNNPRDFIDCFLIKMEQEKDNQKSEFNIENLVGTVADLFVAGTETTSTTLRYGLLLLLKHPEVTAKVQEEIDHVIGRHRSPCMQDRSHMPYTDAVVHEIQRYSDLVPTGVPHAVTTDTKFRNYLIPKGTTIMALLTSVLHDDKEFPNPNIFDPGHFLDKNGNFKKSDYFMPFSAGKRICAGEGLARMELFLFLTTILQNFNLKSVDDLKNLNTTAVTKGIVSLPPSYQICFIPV

[7] = Microsome Stability (% remaining @1 hour); details: CD-1 Mouse; 2 μM
[8] = eLogD (lipophilicity; pH=7.4); type: physicochemical
Experimental: Test compounds were dissolved in DMSO at a concentration of 10 mM and further diluted with methanol:water 1:1. Samples were analyzed using gradient HPLC with three different isocratic mobile phases of 0.25% octanol in methanol (60, 65 and 70%) and 20 mM MOPS buffer (pH 7.4) with decylamine. If needed, (for low E log Doct compounds) the isocratic mobile phases were adjusted to e.g. 40, 45 and 50% methanol. Peaks were detected using a diode array at absorbance 220-320 nm.
Capacity factors data (k′_(tr−_t0)/t0) obtained at various amounts of methanol were extrapolated to 0% methanol and k′w values are determined using a linear procedure. E log Doct (7.4) is calculated using a series of reference standards with known Log D values. Each experiment was performed in triplicate.

[9] = molecular target: hERG Channel (Homo sapiens, UniProt Q12809); test: biochemical
hERG Channel, sequence (Q12809 whole entry): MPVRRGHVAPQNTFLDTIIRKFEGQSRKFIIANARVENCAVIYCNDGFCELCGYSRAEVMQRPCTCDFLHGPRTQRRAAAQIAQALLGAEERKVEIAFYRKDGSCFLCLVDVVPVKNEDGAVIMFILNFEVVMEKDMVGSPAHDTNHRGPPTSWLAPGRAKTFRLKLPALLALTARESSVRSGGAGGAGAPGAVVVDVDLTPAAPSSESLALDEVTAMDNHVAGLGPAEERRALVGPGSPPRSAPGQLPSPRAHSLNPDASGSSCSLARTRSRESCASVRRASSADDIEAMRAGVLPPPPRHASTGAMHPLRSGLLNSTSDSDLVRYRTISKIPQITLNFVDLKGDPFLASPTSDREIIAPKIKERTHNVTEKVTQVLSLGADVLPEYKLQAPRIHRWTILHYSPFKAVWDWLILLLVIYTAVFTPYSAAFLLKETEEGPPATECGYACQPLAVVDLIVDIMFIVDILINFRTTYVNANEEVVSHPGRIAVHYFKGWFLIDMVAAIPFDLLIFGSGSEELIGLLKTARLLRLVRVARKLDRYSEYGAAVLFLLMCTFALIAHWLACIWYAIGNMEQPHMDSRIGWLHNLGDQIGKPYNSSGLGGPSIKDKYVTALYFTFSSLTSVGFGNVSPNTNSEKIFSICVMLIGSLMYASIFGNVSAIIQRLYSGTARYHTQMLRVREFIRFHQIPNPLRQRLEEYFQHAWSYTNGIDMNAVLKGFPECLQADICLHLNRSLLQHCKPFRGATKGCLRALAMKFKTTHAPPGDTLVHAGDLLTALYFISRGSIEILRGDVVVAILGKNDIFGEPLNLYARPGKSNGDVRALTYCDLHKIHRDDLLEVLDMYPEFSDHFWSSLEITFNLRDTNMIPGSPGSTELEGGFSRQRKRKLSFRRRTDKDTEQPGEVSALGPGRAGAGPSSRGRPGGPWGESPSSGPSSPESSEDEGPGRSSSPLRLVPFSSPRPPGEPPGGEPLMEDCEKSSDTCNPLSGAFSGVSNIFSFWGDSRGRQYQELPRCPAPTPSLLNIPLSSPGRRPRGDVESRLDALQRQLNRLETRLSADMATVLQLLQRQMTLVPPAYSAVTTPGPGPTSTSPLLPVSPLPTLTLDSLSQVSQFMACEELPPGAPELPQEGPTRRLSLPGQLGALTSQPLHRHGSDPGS

[10] = Plasma Stability (% remaining @2 hour); type: in vitro ADME; details: CD-1 Mouse; 2 μM

CYP450 2D6, sequence (P10635 whole entry): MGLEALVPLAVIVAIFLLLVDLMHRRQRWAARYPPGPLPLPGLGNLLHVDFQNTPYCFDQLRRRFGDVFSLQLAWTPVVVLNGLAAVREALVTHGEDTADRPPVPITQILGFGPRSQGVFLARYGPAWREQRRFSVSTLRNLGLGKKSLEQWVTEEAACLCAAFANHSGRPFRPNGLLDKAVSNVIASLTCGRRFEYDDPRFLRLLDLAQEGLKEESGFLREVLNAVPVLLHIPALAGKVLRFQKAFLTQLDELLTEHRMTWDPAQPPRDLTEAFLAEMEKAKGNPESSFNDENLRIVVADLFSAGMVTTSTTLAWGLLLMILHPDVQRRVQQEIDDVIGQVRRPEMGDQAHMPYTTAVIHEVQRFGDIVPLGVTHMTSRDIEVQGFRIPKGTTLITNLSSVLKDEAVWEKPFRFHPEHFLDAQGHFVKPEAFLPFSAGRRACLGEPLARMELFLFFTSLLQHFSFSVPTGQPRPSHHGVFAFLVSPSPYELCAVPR

Q: Which “A − B Permeability Ranking” value [1] does the source give for `CNS(=O)(=O)Nc1cccc(Cc2c(CN(C)C)c3ccc(OC(=O)N(C)C)cc3oc2=O)c1F` [Compound A, 4-((dimethylamino)methyl)-3-(2-fluoro-3-((N-methylsulfamoyl)amino)benzyl)-2-oxo-2H-chromen-7-yl dimethylcarbamate] here?
A: High

Q: And the “Mean Papp A − B” value [1]?
A: 13.0 10^−6 cm/s

Q: And the “Mean Papp B − A” value [1]?
A: 21.0 10^−6 cm/s

Q: And the “CYP450 Panel 2D6” value [2]?
A: −3.7

Q: And the “Microsome stability, % Remaining @1 hour” value [3]?
A: 51.7%

Q: And the “BWL (Day 14)” value ([4]; 150 mg/kg BID po)?
A: 0%

Q: What about the “BWL (Day 17)” value ([4]; 150 mg/kg BID po) of the same compound?
A: 0%

Q: What about the “TGI (Day 10)” value ([4]; 150 mg/kg BID po) of the same compound?
A: 93.9%

Q: What about the “Microsome stability, % Remaining @1 hour” value [5] of the same compound?
A: 28.8%

Q: And the CYP450 Panel 2C8 [6]?
A: 4%

Q: And the “Microsome stability, % Remaining @1 hour” value [7]?
A: 54.3%

Q: What about the chromatographic logD [8] of the same compound?
A: 3

Q: What about the “eLogD (lipophilicity; pH = 7.4)” value [8] of the same compound?
A: 3.0

Q: What about the pIC50 [9] of the same compound?
A: 4.58

Q: What about the “Plasma stability, % Remaining @2 hour” value [10] of the same compound?
A: 90.6%

Q: For `Cn1cnc2c(F)c(Nc3ccc(Br)cc3Cl)c(C(=O)NOCCO)cc21` [Reference 1, Selumetinib], which “A − B Permeability Ranking” value [1] is on record?
A: High

Q: What about the “CYP450 Panel 2D6” value [2] of the same compound?
A: 5.0

Q: And the “Microsome stability, % Remaining @1 hour” value [3]?
A: 75.8%

Q: And the “BWL (Day 14)” value ([4]; 50 mg/kg BID po)?
A: 0%

Q: What about the “BWL (Day 17)” value ([4]; 50 mg/kg BID po) of the same compound?
A: −2%

Q: What about the “Microsome stability, % Remaining @1 hour” value [5] of the same compound?
A: 54.6%

Q: What about the CYP450 Panel 2C8 [6] of the same compound?
A: 18.9%

Q: And the “Microsome stability, % Remaining @1 hour” value [7]?
A: 13.9%

Q: What about the “eLogD (lipophilicity; pH = 7.4)” value [8] of the same compound?
A: 3.6

Q: And the pIC50 [9]?
A: < 4.52

Q: What about the “Plasma stability, % Remaining @2 hour” value [10] of the same compound?
A: 104.8%
